Activity calls are given as the source filed them. No cut-off for these calls is given here.
Experiments:
[1] = target: von Hippel-Lindau disease tumor suppressor/ALK tyrosine kinase receptor/Nucleophosmin (Homo sapiens, UniProt Q9UM73+P06748+P40337); test: Protac activity at VHL/NPM-ALK fusion protein in human SR cells assessed as degradation of ALK; format: cell-based
SR = test: Antiproliferative activity against human SR cells assessed as reduction in cell growth; format: functional, cell-based
[2] = target: NPM/ALK (Nucleophosmin/ALK tyrosine kinase receptor) (Homo sapiens) (UniProt Q9UM73+P06748); test: Induction of NPM-ALK fusion protein degradation in human SR cells; format: cell-based
cells = settings: Homo sapiens, NCI-H1688
Description: Antiproliferative activity against human NCI-H1688 cells assessed as inhibition of cell proliferation

NCI-H69 = test: Antiproliferative activity against human NCI-H69 cells assessed as inhibition of cell proliferation; format: functional, cell-based
NCI-H2228 = test: Antiproliferative activity against human NCI-H2228 cells expressing EML4-ALK assessed as reduction in cell viability incubated for 72 hrs by CCK8 assay; format: functional, cell-based; settings: NCI-H2228, 72 h

Chain of von Hippel-Lindau disease tumor suppressor/ALK tyrosine kinase receptor/Nucleophosmin (Q9UM73 whole entry, the tested form may be a part): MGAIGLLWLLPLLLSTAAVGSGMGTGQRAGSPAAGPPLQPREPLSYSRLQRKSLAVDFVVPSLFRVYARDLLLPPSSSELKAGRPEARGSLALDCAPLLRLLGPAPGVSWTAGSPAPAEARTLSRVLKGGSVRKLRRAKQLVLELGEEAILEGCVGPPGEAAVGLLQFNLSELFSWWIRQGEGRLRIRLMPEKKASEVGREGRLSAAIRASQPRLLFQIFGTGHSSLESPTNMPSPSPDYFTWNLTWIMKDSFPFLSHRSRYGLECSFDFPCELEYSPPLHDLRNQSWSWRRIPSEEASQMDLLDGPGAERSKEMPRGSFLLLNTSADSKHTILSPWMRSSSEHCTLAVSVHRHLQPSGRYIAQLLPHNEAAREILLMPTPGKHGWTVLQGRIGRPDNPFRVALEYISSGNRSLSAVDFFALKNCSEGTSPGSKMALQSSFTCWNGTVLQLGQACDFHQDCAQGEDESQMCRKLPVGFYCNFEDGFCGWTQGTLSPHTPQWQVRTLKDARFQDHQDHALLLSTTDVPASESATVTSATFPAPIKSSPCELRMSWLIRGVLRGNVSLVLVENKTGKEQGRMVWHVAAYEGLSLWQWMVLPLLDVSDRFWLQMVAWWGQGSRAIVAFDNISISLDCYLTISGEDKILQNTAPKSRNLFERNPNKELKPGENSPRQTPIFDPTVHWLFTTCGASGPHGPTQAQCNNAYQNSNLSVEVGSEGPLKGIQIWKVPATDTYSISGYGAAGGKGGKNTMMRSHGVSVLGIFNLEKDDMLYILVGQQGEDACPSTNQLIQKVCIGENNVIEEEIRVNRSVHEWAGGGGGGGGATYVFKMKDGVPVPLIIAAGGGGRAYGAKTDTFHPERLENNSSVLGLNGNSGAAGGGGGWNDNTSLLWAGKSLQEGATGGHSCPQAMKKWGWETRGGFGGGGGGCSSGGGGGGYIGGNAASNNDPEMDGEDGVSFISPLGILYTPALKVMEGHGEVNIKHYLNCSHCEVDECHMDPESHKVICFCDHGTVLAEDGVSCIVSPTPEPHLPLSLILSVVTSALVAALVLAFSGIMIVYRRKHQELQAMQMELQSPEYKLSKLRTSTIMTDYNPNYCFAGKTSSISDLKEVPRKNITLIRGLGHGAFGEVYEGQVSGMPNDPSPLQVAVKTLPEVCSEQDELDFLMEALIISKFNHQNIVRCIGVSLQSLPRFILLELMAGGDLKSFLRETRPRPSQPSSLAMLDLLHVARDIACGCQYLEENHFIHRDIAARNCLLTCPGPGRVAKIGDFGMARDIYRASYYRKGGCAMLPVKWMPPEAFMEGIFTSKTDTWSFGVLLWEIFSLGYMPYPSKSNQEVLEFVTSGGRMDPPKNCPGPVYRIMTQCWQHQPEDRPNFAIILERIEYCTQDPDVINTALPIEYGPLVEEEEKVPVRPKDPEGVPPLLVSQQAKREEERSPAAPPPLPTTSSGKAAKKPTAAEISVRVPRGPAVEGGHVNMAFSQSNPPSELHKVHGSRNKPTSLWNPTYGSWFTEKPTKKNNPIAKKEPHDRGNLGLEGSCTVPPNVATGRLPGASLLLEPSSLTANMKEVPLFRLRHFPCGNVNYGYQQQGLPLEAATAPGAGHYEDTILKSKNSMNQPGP
Chain of von Hippel-Lindau disease tumor suppressor/ALK tyrosine kinase receptor/Nucleophosmin (P06748 whole entry, the tested form may be a part): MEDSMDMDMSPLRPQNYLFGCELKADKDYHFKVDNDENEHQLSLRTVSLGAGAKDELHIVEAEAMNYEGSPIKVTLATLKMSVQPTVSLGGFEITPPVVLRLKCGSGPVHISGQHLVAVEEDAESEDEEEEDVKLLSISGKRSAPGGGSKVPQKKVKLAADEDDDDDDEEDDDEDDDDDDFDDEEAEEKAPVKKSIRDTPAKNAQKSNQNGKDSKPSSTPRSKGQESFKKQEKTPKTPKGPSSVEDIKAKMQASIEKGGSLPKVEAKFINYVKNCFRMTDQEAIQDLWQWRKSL
Chain of von Hippel-Lindau disease tumor suppressor/ALK tyrosine kinase receptor/Nucleophosmin (P40337 whole entry, the tested form may be a part): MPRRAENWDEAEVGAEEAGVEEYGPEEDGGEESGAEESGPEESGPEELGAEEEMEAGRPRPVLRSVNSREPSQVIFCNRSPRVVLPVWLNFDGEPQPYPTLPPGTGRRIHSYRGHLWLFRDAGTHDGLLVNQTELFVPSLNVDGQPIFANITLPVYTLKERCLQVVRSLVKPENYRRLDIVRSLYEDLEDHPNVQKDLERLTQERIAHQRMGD
Chain of NPM/ALK (Nucleophosmin/ALK tyrosine kinase receptor) (Homo sapiens) (P06748 whole entry partner, the tested form may be a part): as the sequence (P06748 whole entry, the tested form may be a part) above
Chain of NPM/ALK (Nucleophosmin/ALK tyrosine kinase receptor) (Homo sapiens) (Q9UM73 19-1620 limits assumed): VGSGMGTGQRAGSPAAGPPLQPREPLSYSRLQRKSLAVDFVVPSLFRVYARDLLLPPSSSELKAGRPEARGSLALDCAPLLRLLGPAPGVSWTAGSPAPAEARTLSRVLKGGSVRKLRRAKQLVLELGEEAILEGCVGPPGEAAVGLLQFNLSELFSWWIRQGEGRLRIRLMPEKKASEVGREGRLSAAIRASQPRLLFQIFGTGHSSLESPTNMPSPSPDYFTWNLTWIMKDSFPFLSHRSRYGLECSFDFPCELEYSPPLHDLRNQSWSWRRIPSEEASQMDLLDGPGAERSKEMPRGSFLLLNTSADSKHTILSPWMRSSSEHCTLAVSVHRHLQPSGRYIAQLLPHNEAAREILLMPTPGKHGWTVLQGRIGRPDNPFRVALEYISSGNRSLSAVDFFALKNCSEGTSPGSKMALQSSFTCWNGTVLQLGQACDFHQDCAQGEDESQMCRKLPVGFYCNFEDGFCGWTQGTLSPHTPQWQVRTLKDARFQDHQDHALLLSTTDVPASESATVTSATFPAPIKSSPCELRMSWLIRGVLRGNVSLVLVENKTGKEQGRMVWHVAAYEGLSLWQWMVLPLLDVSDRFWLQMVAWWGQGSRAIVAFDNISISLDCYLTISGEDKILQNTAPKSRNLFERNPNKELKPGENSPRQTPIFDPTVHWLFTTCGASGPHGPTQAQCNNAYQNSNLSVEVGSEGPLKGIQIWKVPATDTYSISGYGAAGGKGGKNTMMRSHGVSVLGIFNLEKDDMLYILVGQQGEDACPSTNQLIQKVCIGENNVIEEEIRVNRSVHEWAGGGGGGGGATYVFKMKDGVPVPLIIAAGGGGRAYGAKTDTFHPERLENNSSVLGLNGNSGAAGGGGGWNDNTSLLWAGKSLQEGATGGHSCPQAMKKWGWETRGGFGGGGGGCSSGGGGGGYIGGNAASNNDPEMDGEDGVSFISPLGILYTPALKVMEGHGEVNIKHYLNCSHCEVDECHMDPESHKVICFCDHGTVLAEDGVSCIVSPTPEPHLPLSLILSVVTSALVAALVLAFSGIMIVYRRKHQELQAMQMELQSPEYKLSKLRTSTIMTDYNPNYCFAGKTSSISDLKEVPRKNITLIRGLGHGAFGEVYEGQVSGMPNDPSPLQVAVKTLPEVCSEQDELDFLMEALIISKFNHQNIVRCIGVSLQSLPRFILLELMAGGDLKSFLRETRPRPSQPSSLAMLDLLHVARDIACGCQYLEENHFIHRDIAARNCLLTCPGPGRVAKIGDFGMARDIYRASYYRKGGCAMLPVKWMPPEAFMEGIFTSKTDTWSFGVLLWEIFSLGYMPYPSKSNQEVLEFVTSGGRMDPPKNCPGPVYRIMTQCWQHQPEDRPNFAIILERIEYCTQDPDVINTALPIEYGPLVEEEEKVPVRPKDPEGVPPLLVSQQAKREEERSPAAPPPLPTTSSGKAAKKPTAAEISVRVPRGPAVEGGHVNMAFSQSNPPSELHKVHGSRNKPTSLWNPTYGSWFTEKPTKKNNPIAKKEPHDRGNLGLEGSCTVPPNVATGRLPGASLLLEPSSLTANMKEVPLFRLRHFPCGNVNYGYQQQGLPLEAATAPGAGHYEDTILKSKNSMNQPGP

SMILES | Activity (SR) | other results
COc1cc(N2CCN(C(=O)CCCCCCCCC(=O)N[C@H](C(=O)N3C[C@H](O)C[C@H]3C(=O)NCc3ccc(-c4scnc4C)cc3)C(C)(C)C)CC2)ccc1Nc1ncc(Cl)c(Nc2ccccc2P(C)(C)=O)n1 | Active | DC50 [1]: > 50 nM
COc1cc(N2CCC(N)CC2)ccc1Nc1ncc(Cl)c(Nc2ccccc2P(C)(C)=O)n1 |  | Activity [2]: inactive; IC50 (SR): 1.7 nM
COc1cc(N2CCC(NC(=O)CCCCCCCCC(=O)N[C@H](C(=O)N3C[C@H](O)C[C@H]3C(=O)NCc3ccc(-c4scnc4C)cc3)C(C)(C)C)CC2)ccc1Nc1ncc(Cl)c(Nc2ccccc2P(C)(C)=O)n1 | Active | DC50 [1]: 7.2 nM
COc1cc(N2CCC(N3CCN(C(=O)CCCCCCC(=O)N[C@H](C(=O)N4C[C@H](O)C[C@H]4C(=O)NCc4ccc(-c5scnc5C)cc4)C(C)(C)C)CC3)CC2)ccc1Nc1ncc(Cl)c(Nc2ccccc2P(C)(C)=O)n1 | Active | DC50 [1]: 11.4 nM
COc1cc(N2CCC(N3CCN(C(=O)CCOCCOCCOCCC(=O)N[C@H](C(=O)N4C[C@H](O)C[C@H]4C(=O)NCc4ccc(-c5scnc5C)cc4)C(C)(C)C)CC3)CC2)ccc1Nc1ncc(Cl)c(Nc2ccccc2P(C)(C)=O)n1 | inactive | 
COc1cc(N2CCNCC2)ccc1Nc1ncc(Cl)c(Nc2ccccc2P(C)(C)=O)n1 |  | IC50 (SR): 1.6 nM
COc1cc(N2CCC(N3CCN(C(=O)CCCCCCCC(=O)N[C@H](C(=O)N4C[C@H](O)C[C@H]4C(=O)NCc4ccc(-c5scnc5C)cc4)C(C)(C)C)CC3)CC2)ccc1Nc1ncc(Cl)c(Nc2ccccc2P(C)(C)=O)n1 | Active | DC50 [1]: 25.1 nM
COc1cc(N2CCN(C(=O)CCOCCOCCOCCOCCC(=O)N[C@H](C(=O)N3C[C@H](O)C[C@H]3C(=O)NCc3ccc(-c4scnc4C)cc3)C(C)(C)C)CC2)ccc1Nc1ncc(Cl)c(Nc2ccccc2P(C)(C)=O)n1 | inactive | 
COc1cc(N2CCC(N3CCN(C(=O)CCOCCOCCOCCOCCC(=O)N[C@H](C(=O)N4C[C@H](O)C[C@H]4C(=O)NCc4ccc(-c5scnc5C)cc4)C(C)(C)C)CC3)CC2)ccc1Nc1ncc(Cl)c(Nc2ccccc2P(C)(C)=O)n1 | inactive | 
COc1cc(N2CCC(NC(=O)CCC(=O)N[C@H](C(=O)N3C[C@H](O)C[C@H]3C(=O)NCc3ccc(-c4scnc4C)cc3)C(C)(C)C)CC2)ccc1Nc1ncc(Cl)c(Nc2ccccc2P(C)(C)=O)n1 | Active | 
COc1cc(N2CCN(C(=O)CCCCCC(=O)N[C@H](C(=O)N3C[C@H](O)C[C@H]3C(=O)NCc3ccc(-c4scnc4C)cc3)C(C)(C)C)CC2)ccc1Nc1ncc(Cl)c(Nc2ccccc2P(C)(C)=O)n1 | Active | 
COc1cc(N2CCN(C(=O)CCCCCCCC(=O)N[C@H](C(=O)N3C[C@H](O)C[C@H]3C(=O)NCc3ccc(-c4scnc4C)cc3)C(C)(C)C)CC2)ccc1Nc1ncc(Cl)c(Nc2ccccc2P(C)(C)=O)n1 | Active | DC50 [1]: 15 nM
COc1cc(N2CCC(NC(=O)CCCC(=O)N[C@H](C(=O)N3C[C@H](O)C[C@H]3C(=O)NCc3ccc(-c4scnc4C)cc3)C(C)(C)C)CC2)ccc1Nc1ncc(Cl)c(Nc2ccccc2P(C)(C)=O)n1 | Active | 
COc1cc(N2CCN(C(=O)CCC(=O)N[C@H](C(=O)N3C[C@H](O)C[C@H]3C(=O)NCc3ccc(-c4scnc4C)cc3)C(C)(C)C)CC2)ccc1Nc1ncc(Cl)c(Nc2ccccc2P(C)(C)=O)n1 | Active | 
COc1cc(N2CCC(N3CCN(C(=O)CCOCCOCCC(=O)N[C@H](C(=O)N4C[C@H](O)C[C@H]4C(=O)NCc4ccc(-c5scnc5C)cc4)C(C)(C)C)CC3)CC2)ccc1Nc1ncc(Cl)c(Nc2ccccc2P(C)(C)=O)n1 | inactive | 
COc1cc(N2CCC(NC(=O)CCCCCCCC(=O)N[C@H](C(=O)N3C[C@H](O)C[C@H]3C(=O)NCc3ccc(-c4scnc4C)cc3)C(C)(C)C)CC2)ccc1Nc1ncc(Cl)c(Nc2ccccc2P(C)(C)=O)n1 | Active | DC50 [1]: 20.9 nM
Cc1ncsc1-c1ccc(CNC(=O)[C@@H]2C[C@@H](O)CN2C(=O)[C@@H](NC(=O)CCCCCCCCCC(=O)O)C(C)(C)C)cc1 |  | IC50 (cells): > 45000 nM; IC50 (NCI-H69): > 40000 nM
COc1cc(N2CCN(C(=O)CCOCCOCCOCCOCCOCCC(=O)N[C@H](C(=O)N3C[C@H](O)C[C@H]3C(=O)NCc3ccc(-c4scnc4C)cc3)C(C)(C)C)CC2)ccc1Nc1ncc(Cl)c(Nc2ccccc2P(C)(C)=O)n1 | inactive | 
COc1cc(N2CCC(NC(=O)CCCCCCC(=O)N[C@H](C(=O)N3C[C@H](O)C[C@H]3C(=O)NCc3ccc(-c4scnc4C)cc3)C(C)(C)C)CC2)ccc1Nc1ncc(Cl)c(Nc2ccccc2P(C)(C)=O)n1 | Active | DC50 [1]: 9.1 nM

SMILES | Activity (SR) | other results
COc1cc(N2CCN(C(=O)CCCC(=O)N[C@H](C(=O)N3C[C@H](O)C[C@H]3C(=O)NCc3ccc(-c4scnc4C)cc3)C(C)(C)C)CC2)ccc1Nc1ncc(Cl)c(Nc2ccccc2P(C)(C)=O)n1 | Active | 
COc1cc(N2CCC(N3CCN(C(=O)CCCC(=O)N[C@H](C(=O)N4C[C@H](O)C[C@H]4C(=O)NCc4ccc(-c5scnc5C)cc4)C(C)(C)C)CC3)CC2)ccc1Nc1ncc(Cl)c(Nc2ccccc2P(C)(C)=O)n1 | Active | 
COc1cc(N2CCC(NC(=O)CCOCCOCCOCCC(=O)N[C@H](C(=O)N3C[C@H](O)C[C@H]3C(=O)NCc3ccc(-c4scnc4C)cc3)C(C)(C)C)CC2)ccc1Nc1ncc(Cl)c(Nc2ccccc2P(C)(C)=O)n1 | inactive | 
COc1cc(N2CCC(NC(=O)CCOCCOCCOCCOCCC(=O)N[C@H](C(=O)N3C[C@H](O)C[C@H]3C(=O)NCc3ccc(-c4scnc4C)cc3)C(C)(C)C)CC2)ccc1Nc1ncc(Cl)c(Nc2ccccc2P(C)(C)=O)n1 | inactive | 
COc1cc(N2CCC(N3CCN(C(=O)CCOCCOCCOCCOCCOCCC(=O)N[C@H](C(=O)N4C[C@H](O)C[C@H]4C(=O)NCc4ccc(-c5scnc5C)cc4)C(C)(C)C)CC3)CC2)ccc1Nc1ncc(Cl)c(Nc2ccccc2P(C)(C)=O)n1 | inactive | 
COc1cc(N2CCC(N3CCN(C(=O)CCCCCC(=O)N[C@H](C(=O)N4C[C@H](O)C[C@H]4C(=O)NCc4ccc(-c5scnc5C)cc4)C(C)(C)C)CC3)CC2)ccc1Nc1ncc(Cl)c(Nc2ccccc2P(C)(C)=O)n1 | Active | 
COc1cc(N2CCC(NC(=O)CCOCCOCCOCCOCCOCCC(=O)N[C@H](C(=O)N3C[C@H](O)C[C@H]3C(=O)NCc3ccc(-c4scnc4C)cc3)C(C)(C)C)CC2)ccc1Nc1ncc(Cl)c(Nc2ccccc2P(C)(C)=O)n1 | inactive | 
COc1cc(N2CCC(NC(=O)CCCCCC(=O)N[C@H](C(=O)N3C[C@H](O)C[C@H]3C(=O)NCc3ccc(-c4scnc4C)cc3)C(C)(C)C)CC2)ccc1Nc1ncc(Cl)c(Nc2ccccc2P(C)(C)=O)n1 | Active | 
COc1cc(N2CCC(NC(=O)CCOCCOCCC(=O)N[C@H](C(=O)N3C[C@H](O)C[C@H]3C(=O)NCc3ccc(-c4scnc4C)cc3)C(C)(C)C)CC2)ccc1Nc1ncc(Cl)c(Nc2ccccc2P(C)(C)=O)n1 | inactive | 
COc1cc(N2CCC(N3CCN(C(=O)CCC(=O)N[C@H](C(=O)N4C[C@H](O)C[C@H]4C(=O)NCc4ccc(-c5scnc5C)cc4)C(C)(C)C)CC3)CC2)ccc1Nc1ncc(Cl)c(Nc2ccccc2P(C)(C)=O)n1 | Active | 
COc1cc(N2CCN(C(=O)CCOCCOCCC(=O)N[C@H](C(=O)N3C[C@H](O)C[C@H]3C(=O)NCc3ccc(-c4scnc4C)cc3)C(C)(C)C)CC2)ccc1Nc1ncc(Cl)c(Nc2ccccc2P(C)(C)=O)n1 | inactive | 
COc1cc(N2CCN(C(=O)CCCCC(=O)N[C@H](C(=O)N3C[C@H](O)C[C@H]3C(=O)NCc3ccc(-c4scnc4C)cc3)C(C)(C)C)CC2)ccc1Nc1ncc(Cl)c(Nc2ccccc2P(C)(C)=O)n1 | Active | 
COc1cc(N2CCC(NC(=O)CCCCC(=O)N[C@H](C(=O)N3C[C@H](O)C[C@H]3C(=O)NCc3ccc(-c4scnc4C)cc3)C(C)(C)C)CC2)ccc1Nc1ncc(Cl)c(Nc2ccccc2P(C)(C)=O)n1 | Active | 
COc1cc(N2CCC(N3CCNCC3)CC2)ccc1Nc1ncc(Cl)c(Nc2ccccc2P(C)(C)=O)n1 |  | Activity [2]: inactive; IC50 (SR): 6.8 nM
COc1cc(N2CCC(N3CCN(C(=O)CCCCC(=O)N[C@H](C(=O)N4C[C@H](O)C[C@H]4C(=O)NCc4ccc(-c5scnc5C)cc4)C(C)(C)C)CC3)CC2)ccc1Nc1ncc(Cl)c(Nc2ccccc2P(C)(C)=O)n1 | Active | 
COc1cc(N2CCC(N3CCN(C)CC3)CC2)ccc1Nc1ncc(Cl)c(Nc2ccccc2P(C)(C)=O)n1 [BRIGATINIB] |  | IC50 (cells): 691 nM; IC50 (NCI-H69): 2600 nM; Activity [2]: inactive; IC50 (NCI-H2228): 58.2 nM; IC50 (SR): 2.7 nM
COc1cc(N2CCN(C(=O)CCOCCOCCOCCC(=O)N[C@H](C(=O)N3C[C@H](O)C[C@H]3C(=O)NCc3ccc(-c4scnc4C)cc3)C(C)(C)C)CC2)ccc1Nc1ncc(Cl)c(Nc2ccccc2P(C)(C)=O)n1 | inactive | 
COc1cc(N2CCC(N3CCN(C(=O)CCCCCCCCC(=O)N[C@H](C(=O)N4C[C@H](O)C[C@H]4C(=O)NCc4ccc(-c5scnc5C)cc4)C(C)(C)C)CC3)CC2)ccc1Nc1ncc(Cl)c(Nc2ccccc2P(C)(C)=O)n1 | Active | DC50 [1]: 7.5 nM
COc1cc(N2CCN(C(=O)CCCCCCC(=O)N[C@H](C(=O)N3C[C@H](O)C[C@H]3C(=O)NCc3ccc(-c4scnc4C)cc3)C(C)(C)C)CC2)ccc1Nc1ncc(Cl)c(Nc2ccccc2P(C)(C)=O)n1 | Active | DC50 [1]: > 50 nM

— ChEMBL document CHEMBL4680228 (Eur J Med Chem, 2020)
